EC50 and IC50 data for 17 compounds are collected here from patent US10421761B2, “Compounds for kinase modulation, and indications therefor” (Plexxikon Inc., priority 2013, dated 2019).

Each structure is given as a SMILES string. Read-outs that look alike come from different tables or passages of the source.

The subject of one test is B9 (HRAS Q61L) cell line. Briefly: B9 P-ERK cell activation assay (AlphaScreen). The test is classed as cell-based, mouse. Particulars: Mus musculus, P-ERK cell activation, B9, read-out: Cell activity (EC50 μM) B9_pERK. In outline: (§1)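 Phospho-ERK1/2 (Thr202/Tyr204) in lysates quantified via AlphaScreen bead proximity, after one-hour, 37° C. exposure of cells to eight compound concentrations. Lines: IPC-298 human melanoma with activated NRAS; B9 mouse squamous carcinoma with activated HRAS.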
Background: Alpha assays give light when donor and acceptor beads are brought close together.

The next test addresses T1, BRAF V600E (Homo sapiens, UniProt P15056, V600E).
T1 construct: purchased Upstate Biotechnology
The test is described as follows: BRAF V600E biochemical kinase activity assay (AlphaScreen, biotin-MEK1 substrate). The settings on record: BRAF V600E biochemical inhibitory activity.

Test [1] has as its system IPC-298 (NRAS Q61L) cell line. The test is described as follows: IPC-298 P-ERK cell activation assay (AlphaScreen). The test is classed as cell-based, human. The settings on record: Homo sapiens, P-ERK cell activation, IPC-298, read-out: Cell activity (EC50 μM) IPC-298_P-ERK. In outline: as §1
The subject of test [2] is A375 (BRAF V600E) cell line. The test is described as follows: A375 P-ERK inhibition assay (AlphaScreen). The format is cell-based, human. Particulars: Homo sapiens, A-375; A375_P-ERK. In a few lines:
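Phospho-ERK1/2 (Thr202/Tyr204) detected in lysates by AlphaScreen proximity signal, pairing a total-ERK antibody with a phospho-specific antibody. Before lysis, A375 cells received compound as an 8-point titration for one hour at 37° C.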

T1 sequence (P15056 whole entry V600E): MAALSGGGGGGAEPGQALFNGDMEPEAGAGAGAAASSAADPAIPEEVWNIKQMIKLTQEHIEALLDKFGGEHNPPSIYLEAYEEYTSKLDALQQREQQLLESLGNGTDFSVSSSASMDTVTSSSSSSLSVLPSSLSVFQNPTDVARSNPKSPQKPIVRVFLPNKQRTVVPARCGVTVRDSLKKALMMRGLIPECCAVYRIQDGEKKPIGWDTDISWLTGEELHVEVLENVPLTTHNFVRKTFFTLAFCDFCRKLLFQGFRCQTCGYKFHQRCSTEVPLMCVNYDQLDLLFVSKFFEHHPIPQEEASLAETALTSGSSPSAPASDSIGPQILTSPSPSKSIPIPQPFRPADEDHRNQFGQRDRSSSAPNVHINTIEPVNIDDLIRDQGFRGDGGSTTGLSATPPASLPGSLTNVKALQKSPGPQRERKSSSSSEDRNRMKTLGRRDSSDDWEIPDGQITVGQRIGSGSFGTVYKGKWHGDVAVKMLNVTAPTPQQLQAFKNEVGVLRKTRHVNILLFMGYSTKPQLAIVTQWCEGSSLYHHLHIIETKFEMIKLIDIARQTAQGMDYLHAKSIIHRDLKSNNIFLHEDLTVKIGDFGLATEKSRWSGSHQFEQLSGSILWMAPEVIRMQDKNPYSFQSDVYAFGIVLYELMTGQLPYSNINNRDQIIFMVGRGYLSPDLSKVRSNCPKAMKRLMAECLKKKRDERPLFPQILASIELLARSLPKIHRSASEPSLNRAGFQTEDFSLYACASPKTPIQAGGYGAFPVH

Consider `O=C(c1c(F)ccc(NS(=O)(=O)C2CCC2)c1F)c1c[nH]c2nccc(Cl)c12` [Compound P-2008, N-[3-(4-chloro-1H-pyrrolo[2,3-b]pyridine-3-carbonyl)-2,4-difluoro-phenyl]cyclobutanesulfonamide], for which the EC50 (with B9 (HRAS Q61L) cell line (numeric bounds); in test [1] (numeric bounds)) was > 10 µM in each case. Moreover, the IC50 (at BRAF V600E; in test [2]) was 0.0001 to 1 µM each time.

Consider `COC(=O)N[C@@H](C)CNc1nccc(-c2nn(C(C)C)cc2-c2cc(Cl)cc(NS(=O)(=O)C3CCC3)c2F)n1` [P-2169, methyl N-[(1S)-2-[[4-[4-[5-chloro-3-(cyclobutylsulfonylamino)-2-fluoro-phenyl]-1-isopropyl-pyrazol-3-yl]pyrimidin-2-yl]amino]-1-methyl-ethyl]carbamate], for which the EC50 (with B9 (HRAS Q61L) cell line (class symbols); in test [1] (class symbols)) was 0.0001 to 1 µM each time. For the same compound, the IC50 (against BRAF V600E; in test [2]) was 0.0001 to 1 µM in each case.

Regarding `NCCNc1ncnc2[nH]cc(C(=O)c3cccc(NS(=O)(=O)N4CCCC4)c3F)c12` [P-2102, N-[3-[4-(2-aminoethylamino)-7H-pyrrolo[2,3-d]pyrimidine-5-carbonyl]-2-fluoro-phenyl]pyrrolidine-1-sulfonamide], the EC50 (with B9 (HRAS Q61L) cell line (numeric bounds); in test [1] (numeric bounds)) was > 10 µM throughout. Also, the figures for the IC50 (on BRAF V600E; in test [2]) were 0.0001 to 1 µM and 1 to 10 µM, respectively.

Take `O=C(c1cccc(NS(=O)(=O)N2CCCC2)c1F)c1c[nH]c2ncncc12` [P-2032, N-[2-fluoro-3-(7H-pyrrolo[2,3-d]pyrimidine-5-carbonyl)phenyl]pyrrolidine-1-sulfonamide]: the EC50 (in the test with B9 (HRAS Q61L) cell line (numeric bounds); in test [1] (numeric bounds)) was > 10 µM throughout. Further, the IC50 (on BRAF V600E; in test [2]) was 0.0001 to 1 µM throughout.

On to `O=C(c1cc(Cl)cc(NS(=O)(=O)N2CCCC2)c1F)c1c[nH]c2ncc(-c3cnc(C4CC4)nc3)cc12` [P-2180, N-(5-chloro-3-(5-(2-cyclopropylpyrimidin-5-yl)-1H-pyrrolo[2,3-b]pyridine-3-carbonyl)-2-fluorophenyl)pyrrolidine-1-sulfonamide], for which the EC50 (in the test with B9 (HRAS Q61L) cell line (numeric bounds); in test [1] (numeric bounds)) was > 10 µM in each case. Moreover, the IC50 against BRAF V600E is 0.0001 to 1 µM; in test [2], < 1 µM.

For the compound `CCC(C)S(=O)(=O)Nc1ccc(F)c(C(=O)c2c[nH]c3nccc(C#N)c23)c1F` (centres unmarked) [P-2020, N-[3-(4-cyano-1H-pyrrolo[2,3-b]pyridine-3-carbonyl)-2,4-difluoro-phenyl]butane-2-sulfonamide], the EC50 (in the test on B9 (HRAS Q61L) cell line (numeric bounds); in test [1] (numeric bounds)) was > 10 µM each time. Also, the IC50 (on BRAF V600E; in test [2]) was 0.0001 to 1 µM throughout.

Regarding `CCCN(C)S(=O)(=O)Nc1cccc(C(=O)c2c[nH]c3ncnc(C4CC4)c23)c1F` [P-2087, 4-cyclopropyl-5-[2-fluoro-3-[[methyl(propyl)sulfamoyl]amino]benzoyl]-7H-pyrrolo[2,3-d]pyrimidine], the EC50 (in the test with B9 (HRAS Q61L) cell line (numeric bounds); in test [1] (numeric bounds)) was > 10 µM throughout. Further, the figures for the IC50 (against BRAF V600E; in test [2]) were 0.0001 to 1 µM and 1 to 10 µM, respectively.

As to `CCCN(C)S(=O)(=O)Nc1cccc(C(=O)c2c[nH]c3ncnc(C)c23)c1F` [P-2086, 5-[2-fluoro-3-[[methyl(propyl)sulfamoyl]amino]benzoyl]-4-methyl-7H-pyrrolo[2,3-d]pyrimidine], the EC50 (with B9 (HRAS Q61L) cell line (numeric bounds); in test [1] (numeric bounds)) was > 10 µM in each case. For the same compound, the IC50 (against BRAF V600E; in test [2]) was 0.0001 to 1 µM each time.

Consider `CC(C)(C)c1nc(-c2cccc(NS(=O)(=O)N3CC[C@H](F)C3)c2F)c(-c2ccnc(N)n2)s1` [P-2130, (3S)-N-[3-[5-(2-aminopyrimidin-4-yl)-2-tert-butyl-thiazol-4-yl]-2-fluoro-phenyl]-3-fluoro-pyrrolidine-1-sulfonamide], for which the EC50 (in the test on B9 (HRAS Q61L) cell line (class symbols); in test [1] (class symbols)) was 0.0001 to 1 µM throughout. For the same compound, the IC50 (on BRAF V600E; in test [2]) was 0.0001 to 1 µM in each case.

For `CCN(CC)S(=O)(=O)Nc1ccc(F)c(C(=O)c2c[nH]c3nccc(OC)c23)c1F` [Compound P-2004, 3-[3-(diethylsulfamoylamino)-2,6-difluoro-benzoyl]-4-methoxy-1H-pyrrolo[2,3-b]pyridine], the EC50 (in the test on B9 (HRAS Q61L) cell line (numeric bounds); in test [1] (numeric bounds)) was > 10 µM in each case. Also, the IC50 at BRAF V600E was 1 to 10 µM; in test [2], > 10 µM.

As to `O=C(c1cccc(NS(=O)(=O)N2CCCC2)c1F)c1c[nH]c2ncnc(NCC3CC3)c12` [P-2057, N-[3-[4-(cyclopropylmethylamino)-7H-pyrrolo[2,3-d]pyrimidine-5-carbonyl]-2-fluoro-phenyl]pyrrolidine-1-sulfonamide], the EC50 (in the test on B9 (HRAS Q61L) cell line (numeric bounds); in test [1] (numeric bounds)) was > 10 µM each time. The IC50 (against BRAF V600E; in test [2]) was 0.0001 to 1 µM throughout.

For `O=C(c1cccc(NS(=O)(=O)N2CCCC2)c1F)c1c[nH]c2ncnc(NCCCN3CCOCC3)c12` [P-2111, N-[2-fluoro-3-[4-(3-morpholinopropylamino)-7H-pyrrolo[2,3-d]pyrimidine-5-carbonyl]phenyl]pyrrolidine-1-sulfonamide], the EC50 (with B9 (HRAS Q61L) cell line (numeric bounds); in test [1] (numeric bounds)) was > 10 µM each time. Besides, the IC50 (against BRAF V600E; in test [2]) was 0.0001 to 1 µM each time.

With `CC(C)S(=O)(=O)Nc1ccc(F)c(C(=O)c2c[nH]c3nccc(C#N)c23)c1F` [P-2017, N-[3-(4-cyano-1H-pyrrolo[2,3-b]pyridine-3-carbonyl)-2,4-difluoro-phenyl]propane-2-sulfonamide], the EC50 (in the test on B9 (HRAS Q61L) cell line (numeric bounds); in test [1] (numeric bounds)) was > 10 µM each time. For the same compound, the IC50 (against BRAF V600E; in test [2]) was 0.0001 to 1 µM throughout.

On to `COC(=O)N[C@@H](C)CNc1nccc(-c2cn(C(C)C)nc2-c2cc(Cl)cc(NS(=O)(=O)N3CCCCC3)c2F)n1` [P-2181, methyl N-[(1S)-2-[[4-[3-[5-chloro-2-fluoro-3-(1-piperidylsulfonylamino)phenyl]-1-isopropyl-pyrazol-4-yl]pyrimidin-2-yl]amino]-1-methyl-ethyl]carbamate], for which the figures for the concentration giving a half-maximal response (EC50) (in the test on B9 (HRAS Q61L) cell line (numeric bounds); in test [1] (class symbols)) were > 10 µM and 0.0001 to 1 µM, respectively. In addition, the IC50 (at BRAF V600E; in test [2]) was 0.0001 to 1 µM throughout.

`CCN(CC)S(=O)(=O)Nc1ccc(F)c(C(=O)c2c[nH]c3nccc(C#N)c23)c1F` [P-2012, 4-cyano-3-[3-(diethylsulfamoylamino)-2,6-difluoro-benzoyl]-1H-pyrrolo[2,3-b]pyridine]: the EC50 (with B9 (HRAS Q61L) cell line (numeric bounds); in test [1] (numeric bounds)) was > 10 µM throughout. Besides, the IC50 was in the range of 0.0001 to 1 µM at BRAF V600E and 1 to 10 µM in test [2].

For `CCN(C)S(=O)(=O)Nc1cccc(C(=O)c2c[nH]c3ncnc(NCC(F)(F)F)c23)c1F` [P-2065, 5-[3-[[ethyl(methyl)sulfamoyl]amino]-2-fluoro-benzoyl]-4-(2,2,2-trifluoroethylamino)-7H-pyrrolo[2,3-d]pyrimidine], the EC50 (with B9 (HRAS Q61L) cell line (numeric bounds); in test [1] (numeric bounds)) was > 10 µM each time. Moreover, the IC50 (against BRAF V600E; in test [2]) was 0.0001 to 1 µM each time.

For the compound `CCN(C)S(=O)(=O)Nc1cccc(C(=O)c2c[nH]c3ncnc(NC[C@@H]4CCCO4)c23)c1F` [P-2074, 5-[3-[[ethyl(methyl)sulfamoyl]amino]-2-fluoro-benzoyl]-4-[[(2S)-tetrahydrofuran-2-yl]methylamino]-7H-pyrrolo[2,3-d]pyrimidine], the EC50 (in the test with B9 (HRAS Q61L) cell line (numeric bounds); in test [1] (numeric bounds)) was > 10 µM throughout. For the same compound, the IC50 (on BRAF V600E; in test [2]) was 0.0001 to 1 µM each time.

Usually EC50 stands for the concentration giving half of the maximal effect. The term IC50 denotes the concentration needed to halve the response being measured. A higher IC50 goes with lower potency.
